Measured values reported in patent US20180371044A1, “PEPTIDOMIMETIC MACROCYCLES” (Aileron Therapeutics, Inc., priority 2015, published 2018).
Where a SMILES comes first, the peptide text is derived from it. Bridges are numbered along the chain shown (N, C = ends). [ ]: non-standard residue; d: D form. NMeY = CN[C@@H](Cc1ccc(O)cc1)C(=O)O; S5 = C=CCCC[C@](C)(N)C(=O)O; Nle = CCCC[C@H](N)C(=O)O

What was measured:
[1] = Plasma compatibility; type: physicochemical
Protocol: The plasma compatibility of exemplary peptidomimetic macrocycles was also determined. Peptidomimetic macrocycles with a plasma compatability value (PC) that is greater than 0.1 were determined as being plasma compatible.

[2] = target: T1, VIPR1 (Vasointestinal Peptide Receptor 1) (Homo sapiens, UniProt P32241); assay: DiscoverX cAMP Hunter eXpress VIPR1 CHO-K1 GPCR assay; type: cell-based; settings: VIPR1 CHO-K1 cells
T1 construct: host or cells: CHO-K1 (cAMP Hunter eXpress VIPR1 CHO-K1 GPCR assay kit)
T1 sequence (P32241 31-457): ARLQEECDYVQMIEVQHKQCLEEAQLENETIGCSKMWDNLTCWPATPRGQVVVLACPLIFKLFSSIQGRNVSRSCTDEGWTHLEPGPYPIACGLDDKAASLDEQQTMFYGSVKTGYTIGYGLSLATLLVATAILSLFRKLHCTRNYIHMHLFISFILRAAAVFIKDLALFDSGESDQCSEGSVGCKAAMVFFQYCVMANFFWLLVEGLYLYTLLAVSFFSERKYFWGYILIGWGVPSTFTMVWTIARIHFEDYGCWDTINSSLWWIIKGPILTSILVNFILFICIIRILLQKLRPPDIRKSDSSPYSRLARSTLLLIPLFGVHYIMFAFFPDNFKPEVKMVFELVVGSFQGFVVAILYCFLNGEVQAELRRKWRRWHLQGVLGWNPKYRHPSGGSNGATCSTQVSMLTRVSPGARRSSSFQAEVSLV
Excerpt: DiscoverX cAmP Hunter eXpress VIPRI CHO-K1 GPCR and GHRHR CHO-K1 GPCR assays kits were used. The DiscoverX kits contain naturally coupled GPCR cell lines designed to detect GPCR signaling through second messenger activation. This signaling involves a membrane bound enzyme called adenylate cyclase. […] receptors modulate cAMP by either inhibiting or stimulating adenylate cyclase, respectively. The DiscoverX cell lines included in the kits utilize the natural coupling status of the GPCR to monitor activation of […] receptors. Following ligand stimulation, the functional status of the GPCR is monitored by measuring cellular cAMP levels using a homogeneous, gain of signal competitive immunoassay based on Enzyme Fragment Complementation (EFC). The amount of EFC is measured by analysis with a fluorescent plate reader.
On the day before the assay, the DiscoverX cell lines were defrosted, plated into 384 well plates and allowed to incubate overnight. All the samples were diluted to 2 mM using 100% DMSO. The vials were sonicated and centrifuged to assure all peptides went into solution. The final volumes were small, 80-200 μl. An 80% purity and peptide content was assumed for all samples and dilutions were based on the molecular weights. On the day of the assay, the samples were diluted to 200 μM in water and then to 4 μM in DiscoverX assay buffer (supplemented with 0.1% BSA). Serial dilutions were performed on assay day, 16 dilutions from 1000 nM were run side by side in duplicate for each peptide for study. The assays were performed in the 384 well plates with the assistance of a CyBio Bi-Well 384 channel liquid handling robot. The samples were analyzed on a Tecan Ultra Evolution plate reader according to DiscoverX guidelines. The EC50 values were determined using GraphPad Prism software. The EC50 value is defined as the concentration of agonist that provokes a response halfway between the baseline and maximum response.
DiscoverX™ cAmP Hunter eXpress VIPR1 CHO-K1 GPCR and GHRHR CHO-K1 GPCR assay kits were used. On the day before the assay, the DiscoverX™ cell lines were defrosted, plated into 384 well plates and allowed to incubate overnight. All the samples were diluted to 2 mM using 100% DMSO. The vials were sonicated and centrifuged to assure all peptides went into solution. The final volumes were small, 80-200 μl. An 80% purity and peptide content was assumed for all samples and dilutions were based on the molecular weights. On the day of the assay, the samples were diluted to 200 μM in water and then to 4 μM in DiscoverX™ assay buffer (supplemented with 0.1% BSA). Serial dilutions were performed on assay day, 16 dilutions from 1000 nM were run side by side in duplicate for each peptide for study. The assays were performed in the 384 well plates with the assistance of a CyBio™ Bi-Well 384 channel liquid handling robot. The samples were analyzed on a Tecan™ Ultra Evolution plate reader according to DiscoverX™ guidelines. The EC50 values were determined using GraphPad™ Prism software. The EC50 value is defined as the concentration of agonist that provokes a response halfway between the baseline and maximum response. (+=>25 nM; ++=>10-25 nM; +++=>1-10 nM; ++++=>0.1-1 nM; +++++=<0.1 nM). […]

[3] = Plasma PK/PD study in rats; type: in vivo, rat; settings: male Sprague-Dawley rats
Protocol: Five peptidomimetic macrocycles of the invention, as well as sermorelin, were studied to determine pharmacokinetic and pharmacodynamic parameters in rats. Male Sprague-Dawley rats (300 g, non-fasted, cannulated) were used. The study had three arms: IV administration, SC administration, and SC administration (vehicle control). For experiments using sermorelin, a dose level of 3 mg/kg IV/SC bolus was used (dose volume of […] dose and dose concentration of 1 mg/mL). The vehicle used was: 10 wt % N, N-Dimethylacetamide, 10 wt % DMSO, 2 wt % Solutol HS 15 in water for injection containing 45 mg/mL (4.5 wt %) Mannitol and 25 mM (0.38 wt %) Histidine (pH 7.5; 320 mOsm/kg). The peptide was first dissolved at high concentration in DMA and DMSO before a second dilution in Solutol vehicle.
For experiments using peptidomimetic macrocycles, 0.1 mL of DMA and 0.1 mL of DMSO were used to combine with each mg of macrocycle (˜4.3-4.5 mg of macrocycle used in each experiment). Sonication was used to ensure complete solubilization. 0.8 mL of Solutol vehicle was used for each mg of macrocycle in DMA/DMSO. The solutions were mixed gently with pipet or light vortexing. Fresh vials were used for each day of dosing, and macrocycles were stored solid at −20° C. prior to formulation.
For each study arm, 2 rats were bled (350 μL) at specific time points (5 min, 15 min, 30 min, 1 h, 2 h, 4 h, 8 h, 24 h, and 48 h) and a 150 μL bleed was performed just before dosing. Plasma was prepared into K2EDTA tubes by centrifuging for 20 minutes at 4° C. at 2000G maximum 30 minutes after collection. From each 350 μL bleed, 120 μL were transferred to one tube for PK studies and 50 μL to another tube for PD studies and frozen immediately. From the 150 μL bleed, 70 μL were transferred to one tube for PD studies and frozen immediately.

[4] = target: T2, GHRHR (Homo sapiens, UniProt Q02643); assay: DiscoverX cAMP Hunter eXpress GHRHR CHO-K1 GPCR assay; type: cell-based
T2 construct: host or cells: CHO-K1 (cAMP Hunter eXpress GHRHR CHO-K1 GPCR assay kit)
T2 sequence (Q02643 23-423): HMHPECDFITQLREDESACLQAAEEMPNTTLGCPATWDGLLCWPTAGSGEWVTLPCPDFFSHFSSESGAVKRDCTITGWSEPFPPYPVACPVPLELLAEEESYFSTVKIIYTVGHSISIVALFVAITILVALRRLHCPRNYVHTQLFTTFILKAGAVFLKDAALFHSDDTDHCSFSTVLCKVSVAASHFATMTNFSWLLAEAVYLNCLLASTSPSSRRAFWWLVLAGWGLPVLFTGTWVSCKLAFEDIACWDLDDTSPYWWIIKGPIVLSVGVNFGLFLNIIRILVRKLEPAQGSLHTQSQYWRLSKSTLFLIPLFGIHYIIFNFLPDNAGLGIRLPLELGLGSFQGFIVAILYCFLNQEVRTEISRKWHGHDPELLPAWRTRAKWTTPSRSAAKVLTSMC
Protocol: DiscoverX cAmP Hunter eXpress VIPRI CHO-K1 GPCR and GHRHR CHO-K1 GPCR assays kits were used. […] Following ligand stimulation, the functional status of the GPCR is monitored by measuring cellular cAMP levels using a homogeneous, gain of signal competitive immunoassay based on Enzyme Fragment Complementation (EFC). The amount of EFC is measured by analysis with a fluorescent plate reader.
DiscoverX™ cAmP Hunter eXpress VIPR1 CHO-K1 GPCR and GHRHR CHO-K1 GPCR assay kits were used. On the day before the assay, the DiscoverX™ cell lines were defrosted, plated into 384 well plates and allowed to incubate overnight. All the samples were diluted to 2 mM using 100% DMSO. The vials were sonicated and centrifuged to assure all peptides went into solution. The final volumes were small, 80-200 μl. An 80% purity and peptide content was assumed for all samples and dilutions were based on the molecular weights. On the day of the assay, the samples were diluted to 200 μM in water and then to 4 μM in DiscoverX™ assay buffer (supplemented with 0.1% BSA). Serial dilutions were performed on assay day, 16 dilutions from 1000 nM were run side by side in duplicate for each peptide for study. The assays were performed in the 384 well plates with the assistance of a CyBio™ Bi-Well 384 channel liquid handling robot. The samples were analyzed on a Tecan™ Ultra Evolution plate reader according to DiscoverX™ guidelines. The EC50 values were determined using GraphPad™ Prism software. The EC50 value is defined as the concentration of agonist that provokes a response halfway between the baseline and maximum response. […] The selectivity value is the concentration of agonist that provokes a response halfway between the baseline and maximum response in VIPR1 CHO-K1 cells divided by the concentration of agonist that provokes a response halfway between the baseline and maximum response in GHRHR CHO-K1 cells.

With `CC[C@H](C)[C@H](NC(=O)[C@H](C)NC(=O)[C@H](CC(=O)O)NC(=O)[C@H](C)NC(=O)[C@@H](N)Cc1ccc(O)cc1)C(=O)N[C@@H](Cc1ccccc1)C(=O)N[C@H](C(=O)N[C@@H](CC(N)=O)C(=O)N[C@@H](CO)C(=O)N[C@@H](Cc1ccc(O)cc1)C(=O)N[C@@H](CCCNC(=N)N)C(=O)N[C@@H](CCCCN)C(=O)N[C@H](C(=O)N[C@@H](CC(C)C)C(=O)NCC(=O)N[C@@H](CCC(N)=O)C(=O)N[C@@H](CC(C)C)C(=O)N[C@@H](CO)C(=O)N[C@@H](C)C(=O)N[C@@H](CCCNC(=N)N)C(=O)N[C@@H](CCCCN)C(=O)N[C@@H](CC(C)C)C(=O)N[C@@H](CC(C)C)C(=O)N[C@@H](CCC(N)=O)C(=O)N[C@@H](CC(=O)O)C(=O)N[C@H](C(=O)N[C@@H](CCSC)C(=O)N[C@@H](CO)C(=O)N[C@@H](CCCNC(=N)N)C(N)=O)[C@@H](C)CC)C(C)C)[C@@H](C)O` [SP-2, reference compound] the “Plasma Compatability” value [1] was 4.6 mg/mL and the EC50 [2] was 0.1 to 1 nM.

In the case of `CC/C=C/CC(=O)N[C@@H](Cc1ccc(O)cc1)C(=O)N[C@@H](C)C(=O)N[C@@H](CC(=O)O)C(=O)N[C@@H](C)C(=O)N[C@H](C(=O)N[C@@H](Cc1ccccc1)C(=O)N[C@H](C(=O)N[C@@H](CC(N)=O)C(=O)N[C@@H](CO)C(=O)N[C@@H](Cc1ccc(O)cc1)C(=O)N[C@@H](CCCNC(=N)N)C(=O)N[C@@H](CCCCN)C(=O)N[C@H](C(=O)N[C@@H](CC(C)C)C(=O)NCC(=O)N[C@@H](CCC(N)=O)C(=O)N[C@@H](CC(C)C)C(=O)N[C@@H](CO)C(=O)N[C@@H](C)C(=O)N[C@@H](CCCNC(=N)N)C(=O)N[C@@H](CCCCN)C(=O)N[C@@H](CC(C)C)C(=O)N[C@@H](CC(C)C)C(=O)N[C@@H](CCC(N)=O)C(=O)N[C@@H](CC(=O)O)C(=O)N[C@H](C(=O)N[C@@H](CCSC)C(=O)N[C@@H](CO)C(=O)N[C@@H](CCCNC(=N)N)C(=O)N[C@@H](CCC(N)=O)C(=O)N[C@@H](CCC(N)=O)C(=O)NCC(=O)N[C@@H](CCC(=O)O)C(=O)N[C@@H](CO)C(=O)N[C@@H](CC(N)=O)C(=O)N[C@@H](CCC(N)=O)C(=O)N[C@@H](CCC(=O)O)C(=O)N[C@@H](CCCNC(=N)N)C(=O)NCC(=O)N[C@@H](C)C(=O)N[C@@H](CCCNC(=N)N)C(=O)N[C@@H](C)C(=O)N[C@@H](CCCNC(=N)N)C(=O)N[C@@H](CC(C)C)C(N)=O)[C@@H](C)CC)C(C)C)[C@@H](C)O)[C@@H](C)CC` [SP-1, reference compound], the “AUC Ext (%)” value [3] is reported as 13.8%, the MRT ([3]; rat, 3 mg/kg) is reported as 1.6 h and the clearance ([3]; rat, 3 mg/kg, read-out: Clp (converted)) is reported as 2.85 mL/min/kg. For the same compound, the Vd ([3]; rat, 3 mg/kg, read-out: Vdss) was 0.267 L/kg, the half-life ([3]; rat, 3 mg/kg, read-out: t ½ (converted)) was 55.1 h and the AUC(0-inf) ([3]; rat, 3 mg/kg, route not given) was 17500 ng·h/mL. The “Plasma Compatability” value [1] was 3.5 mg/mL.

With `CCCC[C@H](NC(=O)[C@@H](NC(=O)[C@H](CC(=O)O)NC(=O)[C@H](CCC(N)=O)NC(=O)[C@H](CC(C)C)NC(=O)[C@H](C)NC(=O)[C@H](CCCCN)NC(=O)[C@H](CCCNC(=N)N)NC(=O)[C@H](C)NC(=O)[C@H](CO)NC(=O)[C@]1(C)CCCC=CCCC[C@](C)(NC(=O)[C@H](CCCCN)NC(=O)[C@H](CCCNC(=N)N)NC(=O)[C@H](Cc2ccc(O)cc2)NC(=O)[C@H](CO)NC(=O)[C@H](CCC(N)=O)NC(=O)[C@@H](NC(=O)[C@H](Cc2ccccc2)NC(=O)[C@@H](NC(=O)[C@H](C)NC(=O)[C@H](CC(=O)O)NC(=O)[C@@H](C)NC(=O)[C@H](Cc2ccc(O)cc2)NC)[C@@H](C)CC)[C@@H](C)O)C(=O)N[C@@H](CC(C)C)C(=O)N[C@@H](C)C(=O)N[C@@H](CCC(N)=O)C(=O)N1)[C@@H](C)CC)C(=O)N[C@@H](CO)C(=O)N[C@@H](CCCNC(=N)N)C(N)=O` [SP-69] (H-[NMeY][dA]DAIFTQSYRK[S5]LAQ[S5]SARKALQDI[Nle]SR-NH2; staple 13-17) the “Plasma Compatability” value [1] was 1.6 mg/mL, the EC50 [2] was 0.1 to 1 nM and the Selectivity ([4]; EC50 in VIPR1 CHO-K1 cells divided by EC50 in GHRHR CHO-K1 cells) was “+ (+=<5)”. It also gave an EC50 ([4]; GHRHR CHO-K1 cells, cAMP) of 0.1 to 1 nM.

In the case of `CCCC[C@H](NC(=O)[C@@H](NC(=O)[C@H](CC(=O)O)NC(=O)[C@H](CCC(N)=O)NC(=O)[C@H](CC(C)C)NC(=O)[C@H](C)NC(=O)[C@H](CCCCN)NC(=O)[C@H](CCCNC(=N)N)NC(=O)[C@H](C)NC(=O)[C@H](CO)NC(=O)[C@]1(C)CCCC=CCCC[C@](C)(NC(=O)[C@H](CCCCN)NC(=O)[C@H](CCCNC(=N)N)NC(=O)[C@H](Cc2ccc(O)cc2)NC(=O)[C@H](CO)NC(=O)[C@H](CCC(N)=O)NC(=O)[C@@H](NC(=O)[C@H](Cc2ccccc2)NC(=O)[C@@H](NC(=O)[C@H](C)NC(=O)[C@H](CC(=O)O)NC(=O)[C@@H](C)NC(=O)[C@@H](N)Cc2ccc(O)cc2)[C@@H](C)CC)[C@@H](C)O)C(=O)N[C@@H](CC(C)C)C(=O)N[C@@H](C)C(=O)N[C@@H](CCC(N)=O)C(=O)N1)[C@@H](C)CC)C(=O)N[C@@H](CO)C(=O)N[C@@H](CCCNC(=N)N)C(N)=O` (single isomer, unassigned) [SP-108], the “Plasma Compatability” value [1] is reported as 1.6 mg/mL.
